According to a melting point compilation (Tetko et al.; mined from patent text by program, amines drawn as free bases though some values may be those of a salt):

In the case of `CSc1ccc(CSc2nnc(-c3ccc4c(c3)CCO4)o2)cc1C(F)(F)F`, the melting point was 108 to 109 °C.
`CCCNCCC1Cc2ccc(C3=NNC(=O)CC3)cc2C1` (stereo not given) showed a melting point of 123 to 124 °C.
Work on `O=C(O)c1sc(-c2cccc(Cl)c2)nc1O` yielded a melting point of 107 to 108 °C.
In the case of `O=C(O)c1ccc(-c2nc(-c3ccc(OC(F)F)cc3)co2)cc1`, the melting point was 261 to 262 °C.
`O=C(O)C(=O)c1ccc(OCCOc2ccc3ccccc3c2)cc1Cl` gave a melting point of 152 to 153 °C.
With `CCNC(=O)Nc1nc2cc(-c3cnc(N(C)C)nc3)cc(C(=O)NCC)n2n1` the melting point was 328 to 334 °C.
`Nc1ncc(CCc2ccccc2)cc1[N+](=O)[O-]` showed a melting point of 145 to 146 °C.
In the case of `Nc1c(OCCCl)cc(Cl)cc1[N+](=O)[O-]`, the melting point was 109 to 110 °C.
`O=C(O)c1cccc(Oc2cccc(-c3nnc(N(Cc4ccc(C(F)(F)P(=O)(O)O)c(Cl)c4)c4ccc(Cl)c(Cl)c4)s3)c2)c1` showed a melting point of 178 to 180 °C.
Work on `Cn1nnnc1NCC(O)CCOc1cccc(CN2CCCCC2)c1` (stereo not given) yielded a melting point of 138 to 139 °C.
`Cc1ccc(S(=O)(=O)N=CNCc2ccc(-c3csc(N=C(N)N)n3)o2)cc1` showed a melting point of 141 to 142 °C.
For `O=c1c2c(Cl)cc(Cl)cc2n(Cc2ccccc2)c(=O)n1CCc1ccccc1`, the melting point was 169 to 171 °C.
With `CCc1cccc(CC)c1NC(=O)Nc1oc2ccc(C)cc2c1-c1ccccc1Cl` the melting point was 214 to 215 °C.
For `COc1cc(OC)nc(C(=O)c2nscc2C(=O)N(C)c2ccccc2)n1`, the melting point was 140 to 142 °C.
`CC(C)C[C@H](N)C(=O)NCCCCNC(=O)c1ccccc1` showed a melting point of 146 to 148 °C.
With `O=C1C2C3C=CC(C3)C2C(=O)N1OS(=O)(=O)C(F)(F)F` (stereo not given) the melting point was 89 to 90 °C.
For `Cc1ccnc2c1C(=O)c1ccccc1C2=O`, the melting point was 198 to 201 °C.
`NS(=O)(=O)c1cccc2c1CC(=O)CC2` showed a melting point of 173 to 175 °C.
For `CCOC(=O)COC(=O)c1c(I)c(NC(C)=O)c(I)c(NC(C)=O)c1I`, the melting point was 270 °C.
`NC(=S)NCCCCCC(=O)Nc1ccc(C(F)(F)F)cc1` gave a melting point of 140 to 142 °C.
In the case of `COc1ccc(-c2ccc3cc(CO)ccc3c2)cc1C12CC3CC(CC(C3)C1)C2`, the melting point was 169 to 171 °C.
Work on `OCCc1c(-c2ccccc2)[nH]c2nccnc12` yielded a melting point of 201 to 202 °C.
In the case of `Cc1sc(N)c(C(=O)c2ccc(Cl)cc2)c1CN(C)Cc1ccccc1`, the melting point was 114 to 116 °C.
In the case of `Cc1cc(C)c2c(c1C)OC(C)(CC(=O)O)C2` (stereo not given), the melting point was 139 to 140 °C.
For `N#Cc1cnc2cc(/C=C/CCCN3CCOCC3)ccc2c1Nc1ccc(Cl)cc1Cl`, the melting point was 142 to 144 °C.
`CC(C)(CSc1ccc(Cl)cc1)C(=O)C(Oc1ccc(Cl)cc1)n1cncn1` (stereo not given) showed a melting point of 115 °C.
In the case of `COC(=O)CC=CC=CC=CC=CC=Cc1ccsc1`, the melting point was 206 to 208 °C.
For `O=C(Nc1nc(-c2ccco2)c(C(=O)c2ccn(Cc3ccccc3)c(=O)c2)s1)c1ccncc1`, the melting point was 288 to 291 °C.
Work on `Fc1cccc(F)c1-c1nnc(-c2c(F)cccc2F)nn1` yielded a melting point of 214 °C.
With `O=c1[nH]nc2ccc(-c3ccc(Cl)c(Cl)c3)nn12` the melting point was 336 to 338 °C.
With `CC(C)c1cnc(NC(=O)Cc2csc(NC(=O)CN(C)C)n2)s1` the melting point was 70 to 71 °C.
For `CC(=O)Oc1ccc(Cl)c2c(=O)c3ccccc3sc12`, the melting point was 141 to 142 °C.
`CNC(=O)C(C)(C)OCc1cc(-c2ccc(Cl)cc2)no1` gave a melting point of 93 to 94 °C.
Compound `CN(Cc1ccc(NC(=O)C2=Cc3cc(-c4ccc(C(F)(F)F)cc4)ccc3OCC2)cc1)C1CCOCC1` has a melting point of 205 to 209 °C.
For `FC(F)(F)CNC1=NN(c2ccc(Cl)c(Cl)c2)CC1`, the melting point was 93 to 94 °C.
Work on `COC(c1ccccc1Cl)c1cc(Cl)ccc1-c1c(C(=O)O)cnn1C` (stereo not given) yielded a melting point of 210 to 213 °C.
For `Cc1cc(NC2=NCCN2)n(CCC(C)C)n1`, the melting point was 104 to 106 °C.
`CC(C)c1cccc(C(C)C)c1NS(=O)(=O)CC(=S)Oc1c(C(C)C)cccc1C(C)C` showed a melting point of 169 to 171 °C.
Work on `O=C(O)CNC(=O)c1cccc2c(-c3ccccc3)c([N+](=O)[O-])oc12` yielded a melting point of 123 to 126 °C.
`COc1ccc(CCN2C=CC=C3C2=Nc2cc(C(F)(F)F)ccc2S(=O)(=O)N3C)cc1` gave a melting point of 43 to 44 °C.
